The values below come from patent US12043632B2, “6-heteroaryloxy benzimidazoles and azabenzimidazoles as JAK2 inhibitors” (Ajax Therapeutics, Inc., priority 2020, dated 2024).

Structures are written as SMILES. pKd: −log10 of the molar value. A value given as a limit tells only on which side of the number the result lay.

The assay concerns the target T1, JAK2 (JH1domain-catalytic, Y1007F,Y1008F) kinase (Homo sapiens, UniProt O60674, Y1007F/Y1008F).
T1 construct: JAK2 (JH1domain-catalytic, Y1007F,Y1008F) kinase was expressed as N-terminal fusion; made in house; host or cells: transiently transfected HEK293 cells
Briefly: JAK2 JH1 Domain Binding Assay. The settings on record: qPCR readout. (Quantitative PCR measures a nucleic acid by following its amplification.)

T1 sequence (O60674 849-1124 Y1007F/Y1008F limits assumed): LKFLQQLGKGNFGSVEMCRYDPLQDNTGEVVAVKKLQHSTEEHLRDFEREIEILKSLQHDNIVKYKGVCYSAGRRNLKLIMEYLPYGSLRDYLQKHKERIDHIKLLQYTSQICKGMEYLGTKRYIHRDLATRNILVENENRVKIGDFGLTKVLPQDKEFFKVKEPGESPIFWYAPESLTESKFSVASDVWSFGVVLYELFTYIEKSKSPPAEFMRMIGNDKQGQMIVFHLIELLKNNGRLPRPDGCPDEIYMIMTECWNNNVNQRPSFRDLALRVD

Compound `CNc1nccn2ncc(Oc3cnc4nc(Nc5cc(CN6CC[C@@H](OC)C6)cc(C(F)(F)F)c5)n(C)c4c3Cl)c12` [Example I-250, (R)-7-chloro-N-(3-((3-methoxypyrrolidin-1-yl)methyl)-5-(trifluoromethyl)phenyl)-1-methyl-6-((4-(methylamino)pyrazolo[1,5-a]pyrazin-3-yl)oxy)-1H-imidazo[4,5-b]pyridin-2-amine] gave a negative logarithm of the Kd (pKd) of 7.30 to 8.00. `Cn1c(Nc2cc(C(C)(C)C)n([C@H]3CCN(CCF)C3)n2)nc2ncc(Oc3cnn4ccnc4c3)c(Cl)c21` [Example I-25, (S)—N-(5-(tert-butyl)-1-(1-(2-fluoroethyl)pyrrolidin-3-yl)-1H-pyrazol-3-yl)-7-chloro-6-(imidazo[1,2-b]pyridazin-7-yloxy)-1-methyl-1H-imidazo[4,5-b]pyridin-2-amine] gave a pKd of 7.30 to 8.00.

Turning to `CN1C[C@H](F)[C@@H](n2nc(Nc3nc4ncc(Oc5cnn6ccncc56)c(Cl)c4n3C)cc2C(C)(C)C)C1` (single isomer, unassigned) [Example I-267-b], the pKd is 6.00 to 7.30. Under `CN1CC[C@H](n2nc(Nc3nc4ncc(Oc5cnn6ccnc6c5)c(Cl)c4n3C)cc2C(C)(C)C)C1` [Example I-35, (S)—N-(5-(tert-butyl)-1-(1-methylpyrrolidin-3-yl)-1H-pyrazol-3-yl)-7-chloro-6-(imidazo[1,2-b]pyridazin-7-yloxy)-1-methyl-1H-imidazo[4,5-b]pyridin-2-amine] stands 7.30 to 8.00. Under `COCc1n[nH]c2ncc(Oc3cnc4nc(Nc5cc6n(n5)CCCC6(F)F)n(C)c4c3C#N)cc12` [Example I-399, 2-((4,4-difluoro-4,5,6,7-tetrahydropyrazolo[1,5-a]pyridin-2-yl)amino)-6-((3-(methoxymethyl)-1H-pyrazolo[3,4-b]pyridin-5-yl)oxy)-1-methyl-1H-imidazo[4,5-b]pyridine-7-carbonitrile] stands greater than 8.00; under `Cn1cc(C(F)(F)F)cc(Nc2nc3ncc(Oc4cnc5[nH]ncc5c4)c(C#N)c3n2C)c1=O` [Example I-260, 6-((1H-pyrazolo[3,4-b]pyridin-5-yl)oxy)-1-methyl-2-((1-methyl-2-oxo-5-(trifluoromethyl)-1,2-dihydropyridin-3-yl)amino)-1H-imidazo[4,5-b]pyridine-7-carbonitrile], greater than 8.00; under `Cn1c(Nc2cc(C3CC3)cn([C@@H]3CCCOC3)c2=O)nc2ncc(Oc3cnn4ccncc34)c(Cl)c21` (single isomer, unassigned) [Example I-73-b], greater than 8.00. Under `Cn1c(Nc2cc(C(C)(C)C)n([C@H]3CCOC3)n2)nc2ncc(Oc3cnn4ccncc34)c(Cl)c21` [Example I-22, (S)—N-(5-(tert-butyl)-1-(tetrahydrofuran-3-yl)-1H-pyrazol-3-yl)-7-chloro-1-methyl-6-(pyrazolo[1,5-a]pyrazin-3-yloxy)-1H-imidazo[4,5-b]pyridin-2-amine] stands greater than 8.00; under `CN(C)[C@H]1CCN(Cc2cc(C(F)(F)F)cc(Nc3nc4ncc(Oc5cnn6ccncc56)c(Cl)c4n3C)c2F)C1` [Example I-285, (S)-7-chloro-N-(3-((3-(dimethylamino)pyrrolidin-1-yl)methyl)-2-fluoro-5-(trifluoromethyl)phenyl)-1-methyl-6-(pyrazolo[1,5-a]pyrazin-3-yloxy)-1H-imidazo[4,5-b]pyridin-2-amine], 7.30 to 8.00. In turn, `Cn1c(Nc2cc(C(C)(C)C)n([C@@H]3CCOC34CC4)n2)nc2ncc(Oc3cnn4ccncc34)c(Cl)c21` (single isomer, unassigned) [Example I-41-b] gave a pKd greater than 8.00. The result for `CNc1nccn2ncc(Oc3cnc4nc(Nc5cc(CN6CC[C@H](N(C)C)C6)cc(C(F)(F)F)c5)n(C)c4c3Cl)c12` [Example I-286, (S)-7-chloro-N-(3-((3-(dimethylamino)pyrrolidin-1-yl)methyl)-5-(trifluoromethyl)phenyl)-1-methyl-6-((4-(methylamino)pyrazolo[1,5-a]pyrazin-3-yl)oxy)-1H-imidazo[4,5-b]pyridin-2-amine] reads 7.30 to 8.00; that for `C[C@@H](O)Cn1nc(Nc2nc3ncc(Oc4cnn5ccncc45)c(Cl)c3n2C)cc1C(C)(C)C` (single isomer, unassigned) [Example I-38], greater than 8.00. Under `Cn1c(Nc2cc(C(F)(F)F)cn([C@H]3CC[C@@H]3O)c2=O)nc2ncc(Oc3cnn4ccncc34)c(Cl)c21` (single isomer, unassigned) [Example I-105-a] stands greater than 8.00; under `CNc1cn2ncc(Oc3cnc4nc(Nc5cc(C(C)(C)C)n([C@@H]6CCN(C)C6)n5)n(C)c4c3Cl)c2cn1` [Example I-347, (R)—N-(5-(tert-butyl)-1-(1-methylpyrrolidin-3-yl)-1H-pyrazol-3-yl)-7-chloro-1-methyl-6-((6-(methylamino)pyrazolo[1,5-a]pyrazin-3-yl)oxy)-1H-imidazo[4,5-b]pyridin-2-amine], 6.00 to 7.30. The result for `Cn1c(Nc2cc(C(C)(C)C)n([C@H]3CCO[C@@H]3CO)n2)nc2ncc(Oc3cnc4cnc(C5CC5)n4c3)c(Cl)c21` [Example I-87, ((2S,3S)-3-(5-(tert-butyl)-3-((7-chloro-6-((6-cyclopropylimidazo[1,5-a]pyrimidin-3-yl)oxy)-1-methyl-1H-imidazo[4,5-b]pyridin-2-yl)amino)-1H-pyrazol-1-yl)tetrahydrofuran-2-yl)methanol] reads 7.30 to 8.00; that for `CNc1nccn2ncc(Oc3cnc4nc(Nc5cc(OCC6CN(C)C6)cc(C(F)(F)F)c5)n(C)c4c3Cl)c12` [Example I-275, 7-chloro-1-methyl-6-((4-(methylamino)pyrazolo[1,5-a]pyrazin-3-yl)oxy)-N-(3-((1-methylazetidin-3-yl)methoxy)-5-(trifluoromethyl)phenyl)-1H-imidazo[4,5-b]pyridin-2-amine], 7.30 to 8.00. In the case of `CNc1ccc2c(Oc3cnc4nc(Nc5cc(C(F)(F)F)cn(C)c5=O)n(C)c4c3C#N)cnn2c1` [Example I-302, 1-methyl-2-((1-methyl-2-oxo-5-(trifluoromethyl)-1,2-dihydropyridin-3-yl)amino)-6-((6-(methylamino)pyrazolo[1,5-a]pyridin-3-yl)oxy)-1H-imidazo[4,5-b]pyridine-7-carbonitrile], the pKd is 7.30 to 8.00. `COc1c[nH]c2ncc(Oc3cnc4nc(Nc5cc(C(F)(F)F)cn(C)c5=O)n(C)c4c3C#N)cc12` [Example I-349, 6-((3-methoxy-1H-pyrrolo[2,3-b]pyridin-5-yl)oxy)-1-methyl-2-((1-methyl-2-oxo-5-(trifluoromethyl)-1,2-dihydropyridin-3-yl)amino)-1H-imidazo[4,5-b]pyridine-7-carbonitrile] had a pKd greater than 8.00. Turning to `Cc1c[nH]c2ncc(Oc3cnc4nc(Nc5cc(C(F)(F)F)cn(C)c5=O)n(C)c4c3C#N)cc12` [Example I-329, 1-methyl-6-((3-methyl-1H-pyrrolo[2,3-b]pyridin-5-yl)oxy)-2-((1-methyl-2-oxo-5-(trifluoromethyl)-1,2-dihydropyridin-3-yl)amino)-1H-imidazo[4,5-b]pyridine-7-carbonitrile], the negative-log Kd (pKd) was greater than 8.00.

In the case of `CNc1cn2ncc(Oc3cnc4nc(Nc5cc6n(n5)CCCC6(C)C)n(C)c4c3Cl)c2cn1` [Example I-338, 7-chloro-N-(4,4-dimethyl-4,5,6,7-tetrahydropyrazolo[1,5-a]pyridin-2-yl)-1-methyl-6-((6-(methylamino)pyrazolo[1,5-a]pyrazin-3-yl)oxy)-1H-imidazo[4,5-b]pyridin-2-amine], the pKd is greater than 8.00. The result for `Cn1c(Nc2cc3n(n2)CCCC3(C)C)nc2ncc(Oc3cnn4ccnc(OCCO)c34)c(Cl)c21` [Example I-124, 2-((3-((7-chloro-2-((4,4-dimethyl-4,5,6,7-tetrahydropyrazolo[1,5-a]pyridin-2-yl)amino)-1-methyl-1H-imidazo[4,5-b]pyridin-6-yl)oxy)pyrazolo[1,5-a]pyrazin-4-yl)oxy)ethan-1-ol] reads greater than 8.00; that for `CNc1cn2ncc(Oc3cnc4nc(Nc5cc([C@@H]6CCCN6C)cc(C(F)(F)F)c5)n(C)c4c3Cl)c2cn1` (single isomer, unassigned) [Example I-359-b], 6.00 to 7.30. Under `CNc1nccn2ncc(Oc3cnc4nc(Nc5cc(CN6CCCC6)cc(C(F)(F)F)c5)n(C)c4c3Cl)c12` [Example I-284, 7-chloro-1-methyl-6-((4-(methylamino)pyrazolo[1,5-a]pyrazin-3-yl)oxy)-N-(3-(pyrrolidin-1-ylmethyl)-5-(trifluoromethyl)phenyl)-1H-imidazo[4,5-b]pyridin-2-amine] stands 7.30 to 8.00; under `Cn1c(Nc2cc(C(F)(F)F)cn(CCO)c2=O)nc2ncc(Oc3cnn4ccc(N5CCOCC5)cc34)c(Cl)c21` [Example I-183, 3-((7-chloro-1-methyl-6-((5-morpholinopyrazolo[1,5-a]pyridin-3-yl)oxy)-1H-imidazo[4,5-b]pyridin-2-yl)amino)-1-(2-hydroxyethyl)-5-(trifluoromethyl)pyridin-2(1H)-one], greater than 8.00; under `CNc1cn2ncc(Oc3cnc4nc(Nc5cc(C(F)(F)F)n([C@@H]6CCOC6)n5)n(C)c4c3Cl)c2cn1` [Example I-340, (R)-7-chloro-1-methyl-6-((6-(methylamino)pyrazolo[1,5-a]pyrazin-3-yl)oxy)-N-(1-(tetrahydrofuran-3-yl)-5-(trifluoromethyl)-1H-pyrazol-3-yl)-1H-imidazo[4,5-b]pyridin-2-amine], greater than 8.00.

In turn, `Cn1c(Nc2cc(C(F)(F)F)n(C3CC4(COC4)C3)n2)nc2ncc(Oc3cnc4[nH]ccc4c3)c(C#N)c21` [Example I-322, 6-((1H-pyrrolo[2,3-b]pyridin-5-yl)oxy)-2-((1-(2-oxaspiro[3.3]heptan-6-yl)-5-(trifluoromethyl)-1H-pyrazol-3-yl)amino)-1-methyl-1H-imidazo[4,5-b]pyridine-7-carbonitrile] had a negative-log Kd (pKd) of 7.30 to 8.00. For the compound `CNc1cn2ncc(Oc3cnc4nc(Nc5cc(CN6CCC6)cc(C(F)(F)F)c5)n(C)c4c3Cl)c2cn1` [Example I-357, N-(3-(azetidin-1-ylmethyl)-5-(trifluoromethyl)phenyl)-7-chloro-1-methyl-6-((6-(methylamino)pyrazolo[1,5-a]pyrazin-3-yl)oxy)-1H-imidazo[4,5-b]pyridin-2-amine], the pKd is 6.00 to 7.30.

As usually defined, the pKd is the negative decadic logarithm of the Kd, by convention in mol/L. The low end stands for a high Kd, the high end for a low Kd.
